# Results as given in patent US5144017A, “Compounds that bind to digitalis receptor” (University of Manitoba, priority 1988, dated 1992).
# Key:
# [1] = prior art; cited from earlier work
# [2] = prior art; cited from earlier work; remark: listed apart in the source
# [3] = target: cardiac glycoside (CG) binding site (digitalis receptor) of heart muscle; assay: 3H-ouabain radioligand binding assay (RBA); design: species or system dog; conditions: for IC50: cardiac receptor of heart muscle, membranes from dog myocardium, read-out: binding / displacement potency in the 3H-ouabain RBA (IC50); for receptor potency relative to the aglycone: glucoside versus aglycone
# Description: An extensive study has been conducted by the inventors with respect to a wide series of steroids of the pregnane and androstane type. The potencies of these steroids were determined in a ^3 H-ouabain radioligand binding assay (RBA). Past experience has indicated to the inventors that the potency of the steroids to displace the labelled cardiac glycoside (i.e. ouabain) in the assay parallel their biological activity, that is their cardiac glycoside-like activity in the ability to inhibit Na/K-ATPase and elicit characteristic cellular response.
# Binding studies were carried out in a ^3 H-ouabain radioligand binding assay (RBA) generally as described by Chow et al in Br. J. Pharmac. (1979), 67, 345 to 352. The results obtained are set forth in the Examples below:
# A number of progesterone derivatives, having a 17α-acetoxy group and various functions at C-3 and C-6, interact at the cardiac glycoside (CG) binding site, as measured by the RBA with membranes from dog myocardium. Experimental values are given in the Table of FIG. 4 and structures in FIG. 3. The inventors have carried out structure-activity studies concerned with modification of the A and B rings as they influence potency in the RBA. As may be seen from the data, some progesterone derivatives with 5α- or 5β-stereochemistry show receptor competing activity. Among the congeners, highest potency is associated with the presence of C-4 or C-4,6-unsaturation and a C-6 substituent (CH3, Cl, Br). The C-3 function may be carbonyl, 3β-hydroxy, 3β-acetoxy or β-D-glucoside when associated with C-4 or C-4,6 unsaturation. In compounds with other substituents that promote activity, C-6α-substitution with --CH3, --Cl or --Br strongly enhance activity, --F, --OCH3, carbonyl or the unsubstituted compound promotes weak binding, and --OC2 H5, --OAc, --OCOOCH3 or --OH eliminates binding activity. Receptor interaction with the double bond at C-4, but not C-5, appears to be particularly important for binding.
# [4] = test system: isolated heart muscle; assay: cardiostimulation in isolated heart muscle
# Excerpt: Differences in toxicity, i.e. the tolerance to increasingly-greater dosage levels before the onset of arrhythmia, exist among the various steroid glycosides.
# [5] = test system: canine ventricular trabeculae muscle; assay: contractile (inotropic) response of canine ventricular trabeculae muscle
# [6] = intrarenal infusion: urine volume, sodium and potassium excretion; assay type: in vivo
# Excerpt: The effects of an intrarenal infusion of ouabain and 14β-hydroxyprogesterone glucoside were compared. […] This marked natriuresis and absence of kaliuresis by the cardiotonic pregnane has practical clinical implications. […]
# [7] = test system: Na/K-ATPase; conditions: prior art; cited from earlier work
# [8] = prior art; cited from earlier work; remark: listed apart in the source
# [9] = listed as β-D-glucoside of 14β-hydroxyprogesterone
smiles,measurement,setting,value
C[C@@H]1O[C@@H](O[C@H]2CC[C@@]3(C)[C@H](CC[C@@H]4[C@@H]3CC[C@]3(C)[C@@H]([C@@H](C)O)CC[C@]43N)C2)[C@H](O)[C@H](O)[C@H]1O [3β-rhamnosyloxy-14β-amino-5β-pregnane-20β-ol],effect on cardiac contractility compared with digoxin,[1],"superior, in terms of tolerance to higher dosage"
same,potency compared with the cardiac glycosides,[2],as potent as the cardiac glycosides
CC(=O)[C@H]1CC[C@]2(O)[C@@H]3CC[C@@H]4CC(=O)CC[C@]4(C)[C@H]3CC[C@]12C [compound 3],IC50,[3],60 µM
same,"binding activity in the RBA, in words",[3]; qualitative statement,weaker than 14β-hydroxyprogesterone
same,cardiostimulation,[4],cardiostimulant
"CC(=O)[C@H]1CC[C@]2(O)[C@@H]3CCC4=CC(=O)CC[C@]4(C)[C@H]3CC[C@]12C [compound 6, 14β-hydroxyprogesterone]",IC50,[3],10 µM
same,cardiostimulation,[4],elicits cardiostimulation
CC(=O)[C@H]1CC[C@]2(O)[C@@H]3CCC4=C[C@@H](O[C@@H]5O[C@H](CO)[C@@H](O)[C@H](O)[C@H]5O)CC[C@]4(C)[C@H]3CC[C@]12C [compound 8],IC50,[3],1.8 µM
same,receptor potency relative to the aglycone,[3]; listed as 14β-OHP-glu,about 10 times
same,receptor potency relative to the aglycone,[3]; [9],approximately ten
same,inotropic response,[5]; dose dependent,positive inotropic response
same,after contractions on rapid electrical stimulation (digitalis-like toxic response),[5]; during peak inotropic response and subsequent depression,possible to elicit spontaneous after contraction(s)
same,contractile response at high concentrations,[5]; high concentrations,"biphasic contractile response, an initial increase followed by a decrease"
same,urine volume,[6],increased urine volume
same,potassium excretion,[6]; listed as 14β-OHP-glu,no influence on potassium excretion
same,sodium excretion,[6]; listed as 14β-OHP-glu,increased sodium excretion significantly
same,potassium excretion,[6]; [9],little effect on potassium excretion
same,sodium excretion,[6]; [9],increased sodium excretion
"CC(=O)O[C@]1(C(C)=O)CC[C@H]2[C@@H]3C=C(Cl)C4=CC(=O)CC[C@]4(C)[C@H]3CC[C@@]21C [compound 20, 17α-acetoxy-6-chloropregna-4,6-diene-3,20-dione, reference compound]",IC50,[3],0.5 µM
same,potency in the RBA relative to ouabain,[3]; fraction of the potency of ouabain,1/20
same,affinity / potency at Na/K-ATPase,[7],high affinity
same,effect on cardiac contractility,[8],cardiodepression or decreased contractility
